Data as given in PubChem BioAssay AID1259407 (Chemical Carcinogenesis Research Information System (CCRIS), 2018).
Activity calls are given as the source filed them. The rule behind the calls is not given here.

Tested on: CCRIS mutagenicity, Ames/micronucleus/aberration tests
Experiment: CCRIS mutagenicity studies

Measured: mutagenic call

C1COCCO1
inactive: Test System: AMES SALMONELLA TYPHIMURIUM, Strain/Indicator: TA1535, Metabolic Activation: RAT LIVER S-9, PHENOBARBITAL AND BETA-NAPHTHOFLAVONE (30%), Method: PREINCUBATION inactive; negative | Test System: AMES SALMONELLA TYPHIMURIUM, Strain/Indicator: TA1535, Metabolic Activation: RAT LIVER S-9, PHENOBARBITAL AND BETA-NAPHTHOFLAVONE, Method: GAS EXPOSURE inactive; negative | Test System: AMES SALMONELLA TYPHIMURIUM, Strain/Indicator: TA1537, Metabolic Activation: HAMSTER LIVER S-9, PHENOBARBITAL AND BETA-NAPHTHOFLAVONE (10%), Method: PREINCUBATION inactive; negative | Test System: AMES SALMONELLA TYPHIMURIUM, Strain/Indicator: TA1537, Metabolic Activation: HAMSTER LIVER S-9, PHENOBARBITAL AND BETA-NAPHTHOFLAVONE (30%), Method: PREINCUBATION inactive; negative | Test System: AMES SALMONELLA TYPHIMURIUM, Strain/Indicator: TA1537, Metabolic Activation: NONE, Method: GAS EXPOSURE inactive; negative | Test System: AMES SALMONELLA TYPHIMURIUM, Strain/Indicator: TA1537, Metabolic Activation: NONE, Method: PREINCUBATION inactive; negative | Test System: AMES SALMONELLA TYPHIMURIUM, Strain/Indicator: TA1537, Metabolic Activation: NONE, Method: STANDARD PLATE inactive; negative | Test System: AMES SALMONELLA TYPHIMURIUM, Strain/Indicator: TA1537, Metabolic Activation: RAT LIVER S-9, PHENOBARBITAL AND 5,6-BENZOFLAVONE, Method: PREINCUBATION inactive; negative | Test System: AMES SALMONELLA TYPHIMURIUM, Strain/Indicator: TA1537, Metabolic Activation: RAT LIVER S-9, PHENOBARBITAL AND 5,6-BENZOFLAVONE, Method: STANDARD PLATE inactive; negative | Test System: AMES SALMONELLA TYPHIMURIUM, Strain/Indicator: TA1537, Metabolic Activation: RAT LIVER S-9, PHENOBARBITAL AND BETA-NAPHTHOFLAVONE (10%), Method: PREINCUBATION inactive; negative | Test System: AMES SALMONELLA TYPHIMURIUM, Strain/Indicator: TA1537, Metabolic Activation: RAT LIVER S-9, PHENOBARBITAL AND BETA-NAPHTHOFLAVONE (30%), Method: PREINCUBATION inactive; negative | Test System: AMES SALMONELLA TYPHIMURIUM, Strain/Indicator: TA1537, Metabolic Activation: RAT LIVER S-9, PHENOBARBITAL AND BETA-NAPHTHOFLAVONE, Method: GAS EXPOSURE inactive; negative | Test System: E.COLI, Strain/Indicator: WP2 (PKM101), Metabolic Activation: NONE, Method: PREINCUBATION inactive; negative | Test System: E.COLI, Strain/Indicator: WP2 (PKM101), Metabolic Activation: NONE, Method: STANDARD PLATE inactive; negative | Test System: E.COLI, Strain/Indicator: WP2 (PKM101), Metabolic Activation: RAT LIVER S-9, PHENOBARBITAL AND 5,6-BENZOFLAVONE, Method: PREINCUBATION inactive; negative | Test System: E.COLI, Strain/Indicator: WP2 (PKM101), Metabolic Activation: RAT LIVER S-9, PHENOBARBITAL AND 5,6-BENZOFLAVONE, Method: STANDARD PLATE inactive; negative | Test System: E.COLI, Strain/Indicator: WP2 UVRA (PKM101), Metabolic Activation: NONE, Method: PREINCUBATION inactive; negative | Test System: E.COLI, Strain/Indicator: WP2 UVRA (PKM101), Metabolic Activation: NONE, Method: STANDARD PLATE inactive; negative | Test System: E.COLI, Strain/Indicator: WP2 UVRA (PKM101), Metabolic Activation: RAT LIVER S-9, PHENOBARBITAL AND 5,6-BENZOFLAVONE, Method: STANDARD PLATE inactive; negative | Test System: E.COLI, Strain/Indicator: WP2 UVRA(PKM101), Metabolic Activation: RAT LIVER S-9, PHENOBARBITAL AND 5,6-BENZOFLAVONE, Method: PREINCUBATION inactive; negative | Test System: E.COLI, Strain/Indicator: WP2UVRA/PKM101, Metabolic Activation: NONE, Method: GAS EXPOSURE inactive; negative | Test System: E.COLI, Strain/Indicator: WP2UVRA/PKM101, Metabolic Activation: RAT LIVER S-9, PHENOBARBITAL AND BETA-NAPHTHOFLAVONE, Method: GAS EXPOSURE inactive; negative | Test System: E.COLI, Strain/Indicator: WP2UVRA, Metabolic Activation: HAMSTER LIVER S-9, PHENOBARBITAL AND BETA-NAPHTHOFLAVONE (10%), Method: PREINCUBATION inactive; negative | Test System: E.COLI, Strain/Indicator: WP2UVRA, Metabolic Activation: HAMSTER LIVER S-9, PHENOBARBITAL AND BETA-NAPHTHOFLAVONE (30%), Method: PREINCUBATION inactive; negative | Test System: E.COLI, Strain/Indicator: WP2UVRA, Metabolic Activation: NONE, Method: GAS EXPOSURE inactive; negative | Test System: E.COLI, Strain/Indicator: WP2UVRA, Metabolic Activation: NONE, Method: PREINCUBATION inactive; negative | Test System: E.COLI, Strain/Indicator: WP2UVRA, Metabolic Activation: RAT LIVER S-9, PHENOBARBITAL AND BETA-NAPHTHOFLAVONE (10%), Method: PREINCUBATION inactive; negative | Test System: E.COLI, Strain/Indicator: WP2UVRA, Metabolic Activation: RAT LIVER S-9, PHENOBARBITAL AND BETA-NAPHTHOFLAVONE (30%), Method: PREINCUBATION inactive; negative | Test System: E.COLI, Strain/Indicator: WP2UVRA, Metabolic Activation: RAT LIVER S-9, PHENOBARBITAL AND BETA-NAPHTHOFLAVONE, Method: GAS EXPOSURE inactive; negative | Test System: MOUSE LYMPHOMA, Strain/Indicator: L5178Y (TK+/TK-), Metabolic Activation: NONE, Method: MICROTITER inactive; negative | Test System: MOUSE LYMPHOMA, Strain/Indicator: L5178Y (TK+/TK-), Metabolic Activation: NONE, Method: SUSPENSION/PLATE inactive; negative | Test System: MOUSE LYMPHOMA, Strain/Indicator: L5178Y (TK+/TK-), Metabolic Activation: RAT LIVER S-9, PHENOBARBITAL AND 5,6-BENZOFLAVONE (2 OR 5%), Method: MICROTITER inactive; negative | Test System: MOUSE LYMPHOMA, Strain/Indicator: L5178Y (TK+/TK-), Metabolic Activation: RAT, LIVER, S-9, AROCLOR 1254, Method: SUSPENSION/PLATE inactive; negative
